In one series the target is T1, OATP1B1 (Homo sapiens, UniProt Q9Y6L6).
T1 sequence (Q9Y6L6 1-691): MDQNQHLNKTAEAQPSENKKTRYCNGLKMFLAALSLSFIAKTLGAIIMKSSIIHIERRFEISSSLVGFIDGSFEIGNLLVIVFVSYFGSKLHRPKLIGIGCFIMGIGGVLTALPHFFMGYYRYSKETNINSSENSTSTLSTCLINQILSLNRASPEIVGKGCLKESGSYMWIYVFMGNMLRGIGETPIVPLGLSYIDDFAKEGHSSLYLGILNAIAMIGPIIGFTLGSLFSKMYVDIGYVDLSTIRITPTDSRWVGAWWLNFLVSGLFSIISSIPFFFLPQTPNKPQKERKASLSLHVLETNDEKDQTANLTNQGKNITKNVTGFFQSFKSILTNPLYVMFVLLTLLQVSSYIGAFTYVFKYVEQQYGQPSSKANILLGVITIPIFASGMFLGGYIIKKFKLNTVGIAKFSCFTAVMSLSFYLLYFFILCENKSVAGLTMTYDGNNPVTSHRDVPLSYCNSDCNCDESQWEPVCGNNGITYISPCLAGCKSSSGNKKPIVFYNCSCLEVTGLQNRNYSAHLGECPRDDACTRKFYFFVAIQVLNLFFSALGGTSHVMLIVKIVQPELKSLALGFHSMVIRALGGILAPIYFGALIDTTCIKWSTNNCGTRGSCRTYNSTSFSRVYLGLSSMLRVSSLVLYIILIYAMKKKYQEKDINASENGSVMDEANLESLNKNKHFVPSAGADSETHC

The target of series [1] is T2, OATP1B3 (Homo sapiens, UniProt Q9NPD5).
T2 sequence (Q9NPD5 1-702): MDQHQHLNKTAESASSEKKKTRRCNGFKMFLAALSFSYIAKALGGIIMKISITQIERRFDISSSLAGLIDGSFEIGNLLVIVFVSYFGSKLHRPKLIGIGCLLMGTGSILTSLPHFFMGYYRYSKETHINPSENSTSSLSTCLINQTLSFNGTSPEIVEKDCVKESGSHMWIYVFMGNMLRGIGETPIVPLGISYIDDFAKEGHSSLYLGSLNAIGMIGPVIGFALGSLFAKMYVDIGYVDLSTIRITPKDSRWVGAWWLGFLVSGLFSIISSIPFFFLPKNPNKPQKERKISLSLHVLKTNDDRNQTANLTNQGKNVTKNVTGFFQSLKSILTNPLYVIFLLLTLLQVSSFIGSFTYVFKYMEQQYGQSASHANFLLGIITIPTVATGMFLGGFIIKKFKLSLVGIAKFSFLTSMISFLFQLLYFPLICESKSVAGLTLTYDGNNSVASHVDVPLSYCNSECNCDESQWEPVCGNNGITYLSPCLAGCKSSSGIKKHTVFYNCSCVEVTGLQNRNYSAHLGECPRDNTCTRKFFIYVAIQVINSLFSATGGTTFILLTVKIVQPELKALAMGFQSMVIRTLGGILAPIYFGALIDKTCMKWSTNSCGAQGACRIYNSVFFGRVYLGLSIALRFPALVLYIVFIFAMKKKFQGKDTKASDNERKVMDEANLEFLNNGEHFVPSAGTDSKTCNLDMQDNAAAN
As to conditions: 3 min; for Inhibition of cellular uptake by RIF, OATP1B3-overexpressing cells: 20 μM RIF, BUP 5 μM, OHB 30 μM, TB 10 μM, EB 5 μM; for Apparent Vmax / Km: net cellular uptake, CHO/OATP1B3-overexpressing cells, mean ± SD; for Km: read-out: Apparent Km.

A further series deals with T3, OATP4A1 (Homo sapiens, UniProt Q96BD0).
T3 sequence (Q96BD0 1-722): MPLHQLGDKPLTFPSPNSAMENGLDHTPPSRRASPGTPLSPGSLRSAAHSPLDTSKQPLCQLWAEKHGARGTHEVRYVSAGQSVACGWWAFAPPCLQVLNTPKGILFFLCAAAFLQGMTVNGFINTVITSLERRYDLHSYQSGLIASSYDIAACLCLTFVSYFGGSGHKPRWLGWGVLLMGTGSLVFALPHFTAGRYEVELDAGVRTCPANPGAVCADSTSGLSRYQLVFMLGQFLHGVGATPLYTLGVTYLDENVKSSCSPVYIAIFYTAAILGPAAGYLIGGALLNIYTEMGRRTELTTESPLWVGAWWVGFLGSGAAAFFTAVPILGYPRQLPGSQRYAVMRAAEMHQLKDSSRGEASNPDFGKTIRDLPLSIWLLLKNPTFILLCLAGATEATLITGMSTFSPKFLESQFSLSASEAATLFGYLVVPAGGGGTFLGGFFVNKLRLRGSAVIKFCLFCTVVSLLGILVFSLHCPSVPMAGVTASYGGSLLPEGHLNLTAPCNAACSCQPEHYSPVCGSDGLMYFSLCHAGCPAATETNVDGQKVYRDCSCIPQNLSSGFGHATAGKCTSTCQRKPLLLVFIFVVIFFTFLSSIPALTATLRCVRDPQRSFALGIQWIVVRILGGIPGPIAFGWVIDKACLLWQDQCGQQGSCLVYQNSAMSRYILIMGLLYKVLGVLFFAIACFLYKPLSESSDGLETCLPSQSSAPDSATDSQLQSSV
The series is described as follows: Cellular uptake assay, HEK/OATP4A1 vs HEK empty vector cells.

In series [2] the target is T2, OATP1B3.
For a further series, the target named is T4, BCRP (Homo sapiens, UniProt Q9UNQ0).
T4 sequence (Q9UNQ0 1-655): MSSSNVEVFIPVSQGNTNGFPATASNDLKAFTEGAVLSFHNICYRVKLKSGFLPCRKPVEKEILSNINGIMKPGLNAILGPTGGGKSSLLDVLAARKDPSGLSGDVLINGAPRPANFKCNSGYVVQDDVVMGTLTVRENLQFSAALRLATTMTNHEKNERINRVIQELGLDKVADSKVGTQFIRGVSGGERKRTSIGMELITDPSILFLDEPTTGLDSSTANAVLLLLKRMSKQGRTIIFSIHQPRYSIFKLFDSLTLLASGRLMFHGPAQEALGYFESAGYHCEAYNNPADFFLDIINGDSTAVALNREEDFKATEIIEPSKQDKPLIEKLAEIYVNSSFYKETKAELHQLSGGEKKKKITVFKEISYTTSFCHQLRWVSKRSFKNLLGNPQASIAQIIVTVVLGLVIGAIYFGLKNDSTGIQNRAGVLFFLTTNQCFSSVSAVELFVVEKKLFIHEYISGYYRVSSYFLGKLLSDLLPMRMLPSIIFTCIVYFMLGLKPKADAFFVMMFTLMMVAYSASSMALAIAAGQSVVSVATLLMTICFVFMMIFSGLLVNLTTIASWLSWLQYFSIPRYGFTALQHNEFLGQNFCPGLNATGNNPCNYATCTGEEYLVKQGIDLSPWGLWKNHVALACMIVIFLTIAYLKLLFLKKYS
Put plainly: Plasma membrane vesicle transport assay, BCRP vesicles. It is filed as in vitro ADME. As to conditions: for Difference in BCRP vesicle uptake between ATP and AMP: 10 μM, 1 min (Fig. 9).

The results in this text go back to paper PMC7451048 (Drug metabolism letters, 2019).

A word on the Km: it is the substrate concentration at which the rate is half of its maximum. In the case of `C[C@H](NC(C)(C)C)[C@@H](O)c1cccc(Cl)c1` [TB, Threohydrobupropion], the “Substrate of OATP1B1 (conclusion)” value on OATP1B1 was “not substrates”. Besides, on OATP1B3 [1], the “Inhibition of cellular uptake by RIF, OATP1B3-overexpressing cells” value (“Inhibition of cellular uptake by RIF” below) is “no statistically significant differences”; the “Apparent Vmax” value turned out to be 2536±97 pmol/mg protein/min; the Km came to 21 ± 3 µM. The “Substrate of OATP4A1 (conclusion)” value on OATP4A1 is on record as “not substrates”. Also, the “Substrate of OATP1B3 (conclusion)” value on OATP1B3 [2] was “not substrates”. For the same molecule, at BCRP, the “Substrate of BCRP (conclusion)” value is on record as “not substrates”; the “Difference in BCRP vesicle uptake between ATP and AMP” value (“Difference” below) is “No significant differences”.

Consider `C[C@H]1NC(C)(C)CO[C@]1(O)c1cccc(Cl)c1` [OHB, Hydroxybupropion], for which, on OATP1B1, the “Substrate of OATP1B1 (conclusion)” value is reported as “not substrates”. For the same molecule, at OATP1B3 [1], the “Inhibition of cellular uptake by RIF” value is given as “no statistically significant differences”; the “Apparent Vmax” value was 1258±86 pmol/mg protein/min; the Michaelis-Menten constant (Km) came out at 76 ± 14 µM. In addition, the “Substrate of OATP4A1 (conclusion)” value at OATP4A1 is “not substrates”. At OATP1B3 [2], the “Substrate of OATP1B3 (conclusion)” value is “not substrates”. Also, on BCRP, the “Substrate of BCRP (conclusion)” value was “not substrates”; the “Difference” value is on record as “No significant differences”.

For the molecule `CC(NC(C)(C)C)C(O)c1cccc(Cl)c1` (stereo not drawn) [EB, Erythrohydrobupropion], the “Substrate of OATP1B1 (conclusion)” value on OATP1B1 was “not substrates”. In addition, on OATP1B3 [1], the “Inhibition of cellular uptake by RIF” value was “no statistically significant differences”; the “Apparent Vmax” value is 1026±37 pmol/mg protein/min; the Km was found to be 14 ± 2 µM. The “Substrate of OATP4A1 (conclusion)” value at OATP4A1 is given as “not substrates”. Also, the “Substrate of OATP1B3 (conclusion)” value at OATP1B3 [2] is listed as “not substrates”. On BCRP, the “Substrate of BCRP (conclusion)” value is reported as “not substrates”; the “Difference” value was “No significant differences”.
